Laboratory results: patent publication US10106577B2, “Agonists of neurotrophin receptors and their use as medicaments” (BIONURE FARMA, S.L., priority 2010, dated 2018)
“Also recorded” adds a separate entry of the source.

Experiments:
NSC-34 cells = assay: In vitro model of ALS, serum deprivation of motoneuron-like cells (MTT); assay type: cell-based, mouse; conditions: for neuroprotection on motorneurons challenged with serum deprivation (in words): 20 ng/ml to 50 μg/ml
Protocol: Mouse motoneuron-like cells NCS-34 were cultured in DMEM (Gibco) supplemented with 10% heat inactivated FBS and 1% penicillin/streptomycin. The cell culture was maintained in a humidified atmosphere of 95% air and CO2 at 37° C.
The nutritional deprivation stress in motorneurons was conducted as described previously in Masahito T. et al., J. Neuropathol. Exp. Neurol. 65(8):816-825 (2006). To assess the effect of trophic stress condition on ALS, the presence of apoptosis was investigated using serum deprivation. NSC-34 cells were seeded in 24-well poly-lysinated plates at 30,000 cells/well and preincubated for 24 h in DMEM plus 10% FBS with various doses of G79, G80, and G81 (20 ng/ml, 100 ng/ml, 2 μg/ml, 20 μg/ml, 50 μg/ml), and G-CSF (2 μg/ml) or BDNF (20 ng/ml) which both were used as positive controls (Masahito T. et al., ibid; Elliot J. L., Neurobiology of Disease 6:310-320 (1999)). Then, the medium was removed and replaced with fresh DMEM without FBS. After 48 h, cell viability was assayed by MTT assay, as described previously.

PC12 cells [1] = assay: Signalling inhibition assays (PC12 differentiation with LY294002 or PD98059); assay type: cell-based
Protocol: To evaluate if the transduction pathway induced by G79, G80, and G81 involves AKT and ERK activation, PC12 cell were treated with the test compounds in the presence of LY294002, an inhibitor of PI3K (an upstream activator of AKT) and PD98059, an inhibitor of MAPK kinase (an upstream activator of ERK). For this purpose, PC12 cells were plated into collagen-coated 24-wells plates with 2.5% FBS and after 72 hrs the cells were treated with the small molecules in combination with LY294002 (Sigma Aldrich, 10 μM) or PD98059 (Sigma Aldrich, 50 μM). NGF (100 ng/ml) was used as control and added alone or in combination with the inhibitors.

PC12 cells [2] = assay: Secretagogue activity assay (PC12 differentiation with antibody anti-NGF); assay type: cell-based
Protocol: To assess if the tested compounds, G79, G80, and G81, act as secretagogues, inducing neurotrophic activity through the synthesis of NGF, PC12 cells were plated into collagen-coated 24-wells plates with only 2.5% FBS and after 72 hrs the cells were treated with the tested compounds (each one at 100 ng/ml) together with antibody anti-NGF (1 μg/ml, AbCam). After three days of treatment, the differentiation was evaluated. The cell count was done in three randomly selected fields with 100 cells.

SH-SY5Y cells = assay: cells; assay type: cell-based, human; conditions: for protective effect against H2O2 oxidative stress (in words): H2O2 100 μM, 20 ng/ml to 50 μg/ml
Protocol: The cells were pre-treated for 3 hours with the test compounds at different concentrations (20 ng/ml, 100 ng/ml, 2 μg/ml, 20 μg/ml and 50 μg/ml) or BDNF (20 ng/ml) as a positive control. Then H2O2 (100 μM) was added and incubated for 24 hrs. The number of surviving cells was determined by MTT assay. […] In FIG. 5B, BDNF cell viability has been considered as the 100%. The H2O2 stress induced a decrease in the percentage of cell viability (no stress Ctr vs H2O2 stress=100±2% vs 95.9±0.5%). G79, compared to G80 and G81, is the one that exerted better protection, at the concentration of 20 ng/ml (BDNF vs G79=100±2.6 vs 107.4±5.8).

PC12 cells [3] = assay: Synergistic activity assay (PC12 differentiation in combination with NGF); assay type: cell-based; conditions: 100 ng/ml in combination with NGF 100 ng/ml
Protocol: To evaluate if the small molecules G79, G80, and G81 interfere with the maximal activity of NGF or lead to additive effects, PC12 cells were plated into collagen-coated 24-wells plates with 2.5% FBS and treated after 72 h with the small chemicals (each one at 100 ng/ml) in combination with NGF at the concentration of 100 ng/ml. In the same experiment PC12 cells were treated with the small molecules or NGF alone, as controls. The number of differentiated cells was evaluated after three days of treatment. The cell count was done in three randomly selected fields with 100 cells.

PC12 cells [4] = assay: Dose response differentiation assay in PC12 cell line; assay type: cell-based; conditions: for number of differentiated cells in a field of 100 cells: after 3 days of treatment; for number of differentiated cells above the best working concentration: G79 at 50 μg/ml, G81 at concentrations higher than 100 ng/ml; for differentiation of PC12 cells (in words): compared to control PC12 untreated cells; for best working concentration for PC12 differentiation: tested 2-20-100 ng/ml and 2-20-50 μg/ml
Protocol: Stock of PC12 cultures were maintained in Ham's F12 medium supplemented with 2.5% fetal bovine serum (FBS), 15% of horse serum (HS) and 1% penicillin/streptomycin. The cell culture was maintained in 5% CO2 at 37° C.
PC12 cell differentiation was assessed by treating the cells with all the test compounds (G79, G80, and G81) at different testing concentration (2-20-100 ng/ml and 2-20-50 μg/ml). The cells were first plated into collagen-coated 24-wells plates with 2.5% FBS in the medium to be de-differentiated. After 72 hrs, the test compounds were added and NGF (Sigma Aldrich; 100 ng/ml) as positive control of differentiation. The number of differentiated cells, with neurite processes greater than two cell bodies in length, is counted after 3 days of treatment. The cell count is done in three randomly selected fields with 100 cells.

RN22 cells = assay: Survival assay in RN22 cells under CuSO4 oxidative stress (MTT); assay type: cell-based, rat; conditions: for cell viability of RN22 (in words): 1-10-50 ng/ml and 1-10 μg/ml, CuSO4 stress; for best working concentration for RN22 cell viability: tested 1-10-50 ng/ml and 1-10 μg/ml; for viability at 0.05 µg/mL: 50 ng/ml
Protocol: The rat schwannome cell line RN22 was cultured in Dulbecco's modified Eagle's medium (DMEM) with 10% FBS and 1% penicillin/streptomycin. The cell culture was maintained in 5% CO2 at 37° C.
RN22 were plated into 24-wells plates at the concentration of 30.000 cells/well in medium without serum. After 24 h, the test compounds G79, G80, and G81 were added at different concentrations (1-10-50 ng/ml and 1-10 μg/ml) and NGF was used as positive control of survival. The cells were so incubated for 2 hrs. Oxidative stress was induced with copper sulphate (CuSO4) at the final concentration of 150 μg/ml. After over-night incubation cell viability was determined by reading the absorbance after adding MTT (Sigma Aldrich).

in vitro = conditions: rat (astrocytes)
[5] = plus LY294002 (10 μM), inhibitor of PI3K
[6] = plus PD98059 (50 μM), inhibitor of MAPK kinase
[7] = 100 ng/ml together with antibody anti-NGF (1 μg/ml)
[8] = Rattus norvegicus, RN 22, CuSO4 150 μg/ml, read-out: cell viability, as % relative to the no-stress control

Row | SMILES | neuroprotection on motorneurons challenged with serum deprivation (in words) (NSC-34 cells) | number of differentiated cells (PC12 cells [1]; [5]) | number of differentiated cells (PC12 cells [1]; [6]) | number of differentiated cells (PC12 cells [1]; treatment alone) | number of differentiated cells for each field (PC12 cells [2]; [7]) | number of differentiated cells for each field (PC12 cells [2]; 100 ng/ml, treatment alone) | protective effect against H2O2 oxidative stress (in words) (SH-SY5Y cells) | number of differentiated cells (PC12 cells [3]) | number of differentiated cells above the best working concentration (PC12 cells [4]) | differentiation of PC12 cells (in words) (PC12 cells [4]) | best working concentration for PC12 differentiation (PC12 cells [4]) [ng/mL] | cell viability of RN22 (in words) (RN22 cells) | best working concentration for RN22 cell viability (RN22 cells) [ng/mL] | Papp (in vitro) [×10⁻⁶ cm/s] | viability at 0.05 µg/mL (RN22 cells; [8]) [%] | other results
1 | CC(C)CN(CC(=O)N(CCCN1CCCC1=O)CC(N)=O)C(=O)CNCCc1ccccc1F [Compound G79, [N-(2-(2′-Fluorophenyl)ethyl)glycyl]-[N-(2-methylpropyl)glycyl]-N-[3-(2′-oxopyrrolidinyl)propyl]glycinamide] | exerted neuroprotection | 5.28±2.54 | 3.1±1.06 | 11.5±2.8 | 18.8±4.9 | 11.5±2.8 | protective effect | 11.3±2.6 | decreases | induce the differentiation of PC12 cells | 20000 | increased cell viability at all tested concentrations | 10 | 4.1 |  | viability at 0.1 µg/mL (NSC-34 cells; Mus musculus, NSC-34, 100 ng/ml, serum deprivation 48 h, read-out: cell viability, percentage relative to the control without stress): 98.1 ± 6.14%; concentration of the best neuroprotective effect (NSC-34 cells; serum deprivation): 100 ng/mL; viability at 0.02 µg/mL (SH-SY5Y cells; Homo sapiens, SH-SY5Y, 24 h, read-out: cell viability, BDNF cell viability considered as the 100%): 107 ± 5.8%; number of differentiated cells in a field of 100 cells (PC12 cells [4]; 20 μg/ml): 11.3±2.68 cells; viability at 0.01 µg/mL (RN22 cells; Rattus norvegicus, RN 22, 10 ng/ml, CuSO4 150 μg/ml, read-out: cell viability, as % relative to the no-stress control): 98.1%
2 | CC(C)CN(CC(=O)N(CCc1ccc(S(N)(=O)=O)cc1)CC(N)=O)C(=O)CNCCc1ccccc1F [Compound G80, [N-(2-(2′-Fluorophenyl)ethyl)glycyl]-[N-(2-methylpropyl)glycyl]-N-[2-(4′-sulfamoylphenyl)ethyl]glycinamide] | exerted neuroprotection | 8.5±2.6 | 4±2.3 | 15.1±6.3 | 14.1±1.8 | 15.1±6.3 | protective effect | 13±5.9 |  | induce the differentiation of PC12 cells; also recorded: good differentiation with very long neurites | 20 | increased cell viability at all tested concentrations | 50 | 2.8 | 99.9 | 
3 | CC(C)CN(CC(=O)N(CCc1ccc(S(N)(=O)=O)cc1)CC(N)=O)C(=O)CNCCN1CCCC1 [Compound G81, [N-(2-(1-Pyrrolidinyl)ethyl)glycyl]-[N-(2-methylpropyl)glycyl]-N-[2-(4′-sulfamoylphenyl)ethyl]glycinamide] | exerted neuroprotection | 6.6±4.02 | 1.6±1.1 | 14.1±3.3 | 15.5±4.1 | 14.1±3.3 | protective effect | 13.3±3.8 | decreases | induce the differentiation of PC12 cells; also recorded: significant differentiation | 100 | increased cell viability at all tested concentrations | 50 | 2.1 | 102 | number of differentiated cells in a field of 100 cells (PC12 cells [4]; 100 ng/ml): 9.2±3.9 cells
